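The compound was tested at five concentrations on cells cultured in 96-well plates, with a 48-hour exposure period. Here, GI50 denotes the concentration required for 50% inhibition of growth. TGI denotes the concentration required for complete inhibition of growth.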

Some test systems named below: 786-0 renal; CAKI-1 renal; COLO 205 colon; IGROV1 ovarian; NCI-H460 lung; OVCAR-5 ovarian; SF-295 CNS; SR leukemia; UO-31 renal; NCI/ADR-RES ovarian.
Assay in all cases: NCI anticancer screen, dose series, 48 h

`CC(C(=O)c1ccccc1)C1(O)C(=O)Nc2ccccc21` (stereo not given): the TGI in the assay on 786-0 renal, with CAKI-1 renal, in the assay with COLO 205 colon, in the assay with IGROV1 ovarian, in the assay with NCI-H460 lung and in the assay on OVCAR-5 ovarian was above 100 µM in each case. Besides, the TGI with SF-295 CNS, in the assay with SR leukemia and with UO-31 renal was above 100 µM throughout.
On to `CCC(O)(c1ccc(OC)cc1)C(c1ccc(OCc2ccccc2)cc1)c1ccc(OCc2ccccc2)cc1` (stereo not given), for which the TGI in the assay with 786-0 renal, in the assay on CAKI-1 renal, with COLO 205 colon, in the assay with IGROV1 ovarian, in the assay on NCI-H460 lung and in the assay with OVCAR-5 ovarian was above 100 µM throughout. Also, the TGI in the assay on SF-295 CNS, with SR leukemia and with UO-31 renal was above 100 µM each time.
Turning to `C=CCCC(C)N(C(=O)OC(C)(C)C)S(=O)(=O)c1ccc(C)cc1` (stereo not given), the TGI in the assay with 786-0 renal, in the assay with CAKI-1 renal, in the assay with COLO 205 colon, in the assay on IGROV1 ovarian, with NCI-H460 lung and in the assay with OVCAR-5 ovarian was above 100 µM in each case. In addition, the TGI with SF-295 CNS, in the assay on SR leukemia and in the assay with UO-31 renal was above 100 µM in each case.
In the case of `NNC(=O)CCC(=O)Nc1ccc(Cl)cc1Cl`, the TGI in the assay on 786-0 renal, in the assay with CAKI-1 renal, in the assay with COLO 205 colon, in the assay with IGROV1 ovarian, in the assay on NCI-H460 lung and with OVCAR-5 ovarian was above 100 µM in each case. Besides, the TGI in the assay on SF-295 CNS, in the assay on SR leukemia and with UO-31 renal was above 100 µM in each case.
With `CC1=C(/C=C/C2=CC(=C\C(=O)O)/CC(C3=C(C)CCCC3(C)C)C2)C(C)(C)CCC1` (stereo not given), the TGI with 786-0 renal was 28.4 µM; with CAKI-1 renal it was 29.5 µM; in the assay on COLO 205 colon it was 30.7 µM; with IGROV1 ovarian, 26.4 µM; with NCI-H460 lung, 27.8 µM; in the assay on OVCAR-5 ovarian, 29.9 µM. The TGI with SF-295 CNS is 22 µM; with SR leukemia, 24.2 µM; in the assay on UO-31 renal it was 22.5 µM.
For `CC(=O)NC1C(OCc2ccccc2)OC(COC(=O)CCCCCNc2ccc([N+](=O)[O-])c3[nH]c4ccc(O)cc4c(=O)c23)C(O)C1OC(C)C(=O)N[C@@H](C)C(=O)N[C@H](CCC(=O)OCc1ccccc1)C(N)=O` (stereo not given in full), the TGI in the assay with 786-0 renal is 14.3 µM; in the assay with CAKI-1 renal, 4.21 µM; in the assay with COLO 205 colon it was 3.25 µM; with IGROV1 ovarian, 34 µM; with NCI-H460 lung, 4.33 µM; with OVCAR-5 ovarian it was 3.81 µM. Further, the TGI was 17 µM in the assay on SF-295 CNS and 0.657 µM in the assay with SR leukemia.
Take `CC1=C2C(=O)C(C)(C)C=C2C(=O)[C@](C)(O)C12CC2`: the TGI in the assay on 786-0 renal, in the assay on CAKI-1 renal, in the assay on COLO 205 colon, in the assay on IGROV1 ovarian, in the assay with NCI-H460 lung and in the assay on OVCAR-5 ovarian was above 1 µM each time. Also, the TGI in the assay on SF-295 CNS, in the assay on SR leukemia and in the assay with UO-31 renal was above 1 µM each time.
Consider `COc1cc2c(=O)n(CCCn3ccnc3)c3c4cc5c(cc4ccc3c2cc1OC)OCO5`, for which the GI50 in the assay with 786-0 renal is 1.93 µM; with COLO 205 colon, 0.291 µM; in the assay on IGROV1 ovarian, 1.16 µM; in the assay with NCI-H460 lung, 0.293 µM; in the assay on NCI/ADR-RES ovarian, 1.08 µM; with SF-295 CNS, 0.331 µM. Moreover, the GI50 was 0.203 µM in the assay with SR leukemia and 0.262 µM in the assay on UO-31 renal. Further, the TGI is above 100 µM in the assay on 786-0 renal; above 100 µM in the assay on COLO 205 colon; above 86.6 µM in the assay with IGROV1 ovarian; above 100 µM with NCI-H460 lung; above 100 µM in the assay on NCI/ADR-RES ovarian; 12.5 µM in the assay with SF-295 CNS. For the same molecule, the TGI in the assay on SR leukemia and in the assay on UO-31 renal was above 100 µM each time.
For `Cc1cccc2c1NC(=O)[C@@]21[C@H](C(=O)c2ccccc2)[C@]2(C(=O)Nc3ccccc32)[C@H]2CCCN21`, the GI50 in the assay on 786-0 renal is 36 µM; in the assay with CAKI-1 renal, 22.4 µM; in the assay with COLO 205 colon, 46.2 µM; with NCI-H460 lung, 24.6 µM; in the assay with NCI/ADR-RES ovarian, 20.4 µM; in the assay on OVCAR-5 ovarian it was above 100 µM. For the same molecule, the GI50 was 74.6 µM with SF-295 CNS, 15.4 µM with SR leukemia and 17.6 µM in the assay with UO-31 renal. The TGI with 786-0 renal is above 100 µM; with CAKI-1 renal it was above 100 µM; with COLO 205 colon, above 100 µM; in the assay on NCI-H460 lung, above 100 µM; in the assay on NCI/ADR-RES ovarian, 71.5 µM; in the assay on OVCAR-5 ovarian, above 100 µM. In addition, the TGI with SF-295 CNS, with SR leukemia and in the assay with UO-31 renal was above 100 µM each time.
For `CCOC(=O)/C(C#N)=C\C=C1/C=CNC2=NCCN21`, the TGI in the assay with 786-0 renal, in the assay on CAKI-1 renal, in the assay on COLO 205 colon, in the assay with IGROV1 ovarian, in the assay on NCI-H460 lung and in the assay with SF-295 CNS was above 100 µM throughout. Further, the TGI in the assay with SR leukemia and in the assay with UO-31 renal was above 100 µM in each case.
Take `O=C(CN1CCOCC1)CC(O)(C(F)(F)F)C(F)(F)F`: the TGI in the assay with 786-0 renal, in the assay on CAKI-1 renal, with COLO 205 colon, in the assay on IGROV1 ovarian, with NCI/ADR-RES ovarian and with OVCAR-5 ovarian was above 100 µM throughout. For the same molecule, the TGI with SF-295 CNS, with SR leukemia and in the assay with UO-31 renal was above 100 µM throughout.
With `CCCCCCCC(=O)OCC1OC(n2cc(F)c(=O)[nH]c2=O)C(NC(=O)OCc2ccccc2)C(OC(=O)CCCCCCC)C1O` (stereo not given), the TGI in the assay with 786-0 renal is 65.1 µM; with CAKI-1 renal, above 100 µM; in the assay on COLO 205 colon, 68.3 µM; in the assay on IGROV1 ovarian, above 100 µM; with NCI-H460 lung it was above 100 µM; with SF-295 CNS it was above 100 µM. Besides, the TGI in the assay with SR leukemia worked out at 64 µM; with UO-31 renal, 0.865 µM.
As for `CC([C@H]1CCC2C3CCC4CC5(CC[C@]4(C)C3CC[C@@]21C)c1ccccc1C(=O)N5C)N(C)C` (stereo not given in full), the TGI is 29.8 µM with 786-0 renal; above 100 µM in the assay on CAKI-1 renal; above 100 µM in the assay with COLO 205 colon; above 100 µM in the assay on IGROV1 ovarian; above 100 µM in the assay with NCI-H460 lung; above 100 µM in the assay with OVCAR-5 ovarian. Also, the TGI in the assay on SF-295 CNS came out at 48.5 µM; in the assay with SR leukemia, 74.7 µM; in the assay with UO-31 renal it was 50.2 µM.

These data come from PubChem BioAssay (NCI).
